Source: ChEMBL document CHEMBL3112479, “Synthesis and evaluation of the antimicrobial activities of 3-((5-phenyl-1,3,4-oxadiazol-2-yl)methyl)-2-thioxothiazolidin-4-one derivatives” (2014)
Values after ≈ are worked out from the molar mass of the structure shown.

Columns and labels:
Candida albicans = assay: Antimicrobial activity against Candida albicans 7535 after 20 hrs by two-fold serial dilution technique; assay type: functional; conditions: Candida albicans, 7535, 20 h
Escherichia coli [1] = assay: Antimicrobial activity against Escherichia coli KCTC 1924 after 20 hrs by two-fold serial dilution technique; assay type: functional; conditions: KCTC 1924, 20 h
Salmonella typhimurium [2] = assay: Antimicrobial activity against Salmonella typhimurium 2421 after 20 hrs by two-fold serial dilution technique; assay type: functional, Salmonella enterica subsp. enterica serovar Typhimurium; conditions: Salmonella enterica, 2421, 20 h
Staphylococcus aureus [3] = assay: Antimicrobial activity against quinolone-resistant Staphylococcus aureus clinical isolate 3505 after 20 hrs by two-fold serial dilution technique; assay type: functional; conditions: isolate 3505, 20 h
Pseudomonas aeruginosa [4] = assay: Antimicrobial activity against Pseudomonas aeruginosa 2742 after 20 hrs by two-fold serial dilution technique; assay type: functional; conditions: Pseudomonas aeruginosa, 2742, 20 h
Salmonella typhimurium [5] = assay: Antimicrobial activity against Salmonella typhimurium 1926 after 20 hrs by two-fold serial dilution technique; assay type: functional, Salmonella enterica subsp. enterica serovar Typhimurium; conditions: Salmonella enterica, 1926, 20 h
Pseudomonas aeruginosa [6] = assay: Antimicrobial activity against Pseudomonas aeruginosa 2004 after 20 hrs by two-fold serial dilution technique; assay type: functional; conditions: Pseudomonas aeruginosa, 2004, 20 h
Streptococcus mutans = assay: Antimicrobial activity against Streptococcus mutans 3065 after 20 hrs by two-fold serial dilution technique; assay type: functional; conditions: Streptococcus mutans, 3065, 20 h
Staphylococcus aureus [7] = assay: Antimicrobial activity against Staphylococcus aureus RN4220 after 20 hrs by two-fold serial dilution technique; assay type: functional; conditions: RN4220, 20 h
Staphylococcus aureus [8] = assay: Antimicrobial activity against Staphylococcus aureus 209 after 20 hrs by two-fold serial dilution technique; assay type: functional; conditions: Staphylococcus aureus, 209, 20 h
Escherichia coli [9] = assay: Antimicrobial activity against Escherichia coli CCARM 1356 after 20 hrs by two-fold serial dilution technique; assay type: functional; conditions: CCARM 1356, 20 h
Staphylococcus aureus [10] = assay: Antimicrobial activity against methicillin-resistant Staphylococcus aureus clinical isolate 3167 after 20 hrs by two-fold serial dilution technique; assay type: functional; conditions: isolate 3167, 20 h
Staphylococcus aureus [11] = assay: Antimicrobial activity against quinolone-resistant Staphylococcus aureus clinical isolate 3519 after 20 hrs by two-fold serial dilution technique; assay type: functional; conditions: isolate 3519, 20 h
Staphylococcus aureus [12] = assay: Antimicrobial activity against methicillin-resistant Staphylococcus aureus clinical isolate 3506 after 20 hrs by two-fold serial dilution technique; assay type: functional; conditions: isolate 3506, 20 h
Staphylococcus aureus [13] = assay: Antimicrobial activity against Staphylococcus aureus 503 after 20 hrs by two-fold serial dilution technique; assay type: functional; conditions: Staphylococcus aureus, 503, 20 h

Cc1ccc(-c2nnc(CN3C(=O)CSC3=S)o2)cc1
MIC (Candida albicans): 64 µg/mL (≈ 210 µM)
MIC (Escherichia coli [1]): 64 µg/mL (≈ 210 µM)
MIC (Salmonella typhimurium [2]): 128 µg/mL (≈ 419 µM)
MIC (Staphylococcus aureus [3]): 64 µg/mL (≈ 210 µM)
MIC (Pseudomonas aeruginosa [4]): > 128 µg/mL
MIC (Salmonella typhimurium [5]): 64 µg/mL (≈ 210 µM)
MIC (Pseudomonas aeruginosa [6]): > 128 µg/mL
MIC (Streptococcus mutans): 64 µg/mL (≈ 210 µM)
MIC (Staphylococcus aureus [7]): 64 µg/mL (≈ 210 µM)
MIC (Staphylococcus aureus [8]): 64 µg/mL (≈ 210 µM)
MIC (Escherichia coli [9]): > 128 µg/mL
MIC (Staphylococcus aureus [10]): 64 µg/mL (≈ 210 µM)
MIC (Staphylococcus aureus [11]): 64 µg/mL (≈ 210 µM)
MIC (Staphylococcus aureus [12]): 64 µg/mL (≈ 210 µM)
MIC (Staphylococcus aureus [13]): 64 µg/mL (≈ 210 µM)

O=C1CSC(=S)N1Cc1nnc(-c2ccc(Cl)cc2)o1
MIC (Candida albicans): 32 µg/mL (≈ 98.2 µM)
MIC (Escherichia coli [1]): 16 µg/mL (≈ 49.1 µM)
MIC (Salmonella typhimurium [2]): 128 µg/mL (≈ 393 µM)
MIC (Staphylococcus aureus [3]): 64 µg/mL (≈ 196 µM)
MIC (Pseudomonas aeruginosa [4]): > 128 µg/mL
MIC (Salmonella typhimurium [5]): 32 µg/mL (≈ 98.2 µM)
MIC (Pseudomonas aeruginosa [6]): > 128 µg/mL
MIC (Streptococcus mutans): 16 µg/mL (≈ 49.1 µM)
MIC (Staphylococcus aureus [7]): 32 µg/mL (≈ 98.2 µM)
MIC (Staphylococcus aureus [8]): 32 µg/mL (≈ 98.2 µM)
MIC (Escherichia coli [9]): > 128 µg/mL
MIC (Staphylococcus aureus [10]): 32 µg/mL (≈ 98.2 µM)
MIC (Staphylococcus aureus [11]): 64 µg/mL (≈ 196 µM)
MIC (Staphylococcus aureus [12]): 32 µg/mL (≈ 98.2 µM)
MIC (Staphylococcus aureus [13]): 64 µg/mL (≈ 196 µM)

O=C1CSC(=S)N1Cc1nnc(-c2ccc(Br)cc2)o1
MIC (Candida albicans): 64 µg/mL (≈ 173 µM)
MIC (Escherichia coli [1]): 64 µg/mL (≈ 173 µM)
MIC (Salmonella typhimurium [2]): 128 µg/mL (≈ 346 µM)
MIC (Staphylococcus aureus [3]): 64 µg/mL (≈ 173 µM)
MIC (Pseudomonas aeruginosa [4]): > 128 µg/mL
MIC (Salmonella typhimurium [5]): 64 µg/mL (≈ 173 µM)
MIC (Pseudomonas aeruginosa [6]): > 128 µg/mL
MIC (Streptococcus mutans): 16 µg/mL (≈ 43.2 µM)
MIC (Staphylococcus aureus [7]): 64 µg/mL (≈ 173 µM)
MIC (Staphylococcus aureus [8]): 64 µg/mL (≈ 173 µM)
MIC (Escherichia coli [9]): > 128 µg/mL
MIC (Staphylococcus aureus [10]): 64 µg/mL (≈ 173 µM)
MIC (Staphylococcus aureus [11]): 64 µg/mL (≈ 173 µM)
MIC (Staphylococcus aureus [12]): 64 µg/mL (≈ 173 µM)
MIC (Staphylococcus aureus [13]): 64 µg/mL (≈ 173 µM)

Cc1ccccc1-c1nnc(CN2C(=O)CSC2=S)o1
MIC (Candida albicans): 64 µg/mL (≈ 210 µM)
MIC (Escherichia coli [1]): 16 µg/mL (≈ 52.4 µM)
MIC (Salmonella typhimurium [2]): 128 µg/mL (≈ 419 µM)
MIC (Staphylococcus aureus [3]): 32 µg/mL (≈ 105 µM)
MIC (Pseudomonas aeruginosa [4]): > 128 µg/mL
MIC (Salmonella typhimurium [5]): 32 µg/mL (≈ 105 µM)
MIC (Pseudomonas aeruginosa [6]): > 128 µg/mL
MIC (Streptococcus mutans): 16 µg/mL (≈ 52.4 µM)
MIC (Staphylococcus aureus [7]): 32 µg/mL (≈ 105 µM)
MIC (Staphylococcus aureus [8]): 16 µg/mL (≈ 52.4 µM)
MIC (Escherichia coli [9]): > 128 µg/mL
MIC (Staphylococcus aureus [10]): 32 µg/mL (≈ 105 µM)
MIC (Staphylococcus aureus [11]): 64 µg/mL (≈ 210 µM)
MIC (Staphylococcus aureus [12]): 64 µg/mL (≈ 210 µM)
MIC (Staphylococcus aureus [13]): 64 µg/mL (≈ 210 µM)

O=C1CSC(=S)N1Cc1nnc(-c2ccccc2Cl)o1
MIC (Candida albicans): 64 µg/mL (≈ 196 µM)
MIC (Escherichia coli [1]): 16 µg/mL (≈ 49.1 µM)
MIC (Salmonella typhimurium [2]): 64 µg/mL (≈ 196 µM)
MIC (Staphylococcus aureus [3]): 32 µg/mL (≈ 98.2 µM)
MIC (Pseudomonas aeruginosa [4]): > 128 µg/mL
MIC (Salmonella typhimurium [5]): 32 µg/mL (≈ 98.2 µM)
MIC (Pseudomonas aeruginosa [6]): > 128 µg/mL
MIC (Streptococcus mutans): 16 µg/mL (≈ 49.1 µM)
MIC (Staphylococcus aureus [7]): 32 µg/mL (≈ 98.2 µM)
MIC (Staphylococcus aureus [8]): 16 µg/mL (≈ 49.1 µM)
MIC (Escherichia coli [9]): > 128 µg/mL
MIC (Staphylococcus aureus [10]): 32 µg/mL (≈ 98.2 µM)
MIC (Staphylococcus aureus [11]): 32 µg/mL (≈ 98.2 µM)
MIC (Staphylococcus aureus [12]): 32 µg/mL (≈ 98.2 µM)
MIC (Staphylococcus aureus [13]): 32 µg/mL (≈ 98.2 µM)

O=C1CSC(=S)N1Cc1nnc(-c2ccccc2Br)o1
MIC (Candida albicans): 64 µg/mL (≈ 173 µM)
MIC (Escherichia coli [1]): 16 µg/mL (≈ 43.2 µM)
MIC (Salmonella typhimurium [2]): 128 µg/mL (≈ 346 µM)
MIC (Staphylococcus aureus [3]): 32 µg/mL (≈ 86.4 µM)
MIC (Pseudomonas aeruginosa [4]): > 128 µg/mL
MIC (Salmonella typhimurium [5]): 64 µg/mL (≈ 173 µM)
MIC (Pseudomonas aeruginosa [6]): > 128 µg/mL
MIC (Streptococcus mutans): 16 µg/mL (≈ 43.2 µM)
MIC (Staphylococcus aureus [7]): 32 µg/mL (≈ 86.4 µM)
MIC (Staphylococcus aureus [8]): 16 µg/mL (≈ 43.2 µM)
MIC (Escherichia coli [9]): > 128 µg/mL
MIC (Staphylococcus aureus [10]): 16 µg/mL (≈ 43.2 µM)
MIC (Staphylococcus aureus [11]): 32 µg/mL (≈ 86.4 µM)
MIC (Staphylococcus aureus [12]): 32 µg/mL (≈ 86.4 µM)
MIC (Staphylococcus aureus [13]): 64 µg/mL (≈ 173 µM)
